Test results: the NIST ThermoML archive (doi:10.1021/je0342116)
Numbers after ± are expanded uncertainties.

Experiment: activity coefficient (dimensionless); of the first substance listed, at infinite dilution; xn = mol fraction of the nth substance listed
Settings: Liquid, Chromatography, x1 = 0

SMILES | activity coefficient (249.97 K) | activity coefficient (270.03 K) | activity coefficient (290 K) | activity coefficient (310 K) | activity coefficient (330 K) | activity coefficient (249.96 K) | activity coefficient (270.04 K)
C=C(C)C [2-methylpropene] + CC(C)O | 4.4 ± 0.2 | 4.3 ± 0.2 | 4.2 ± 0.2 | 4 ± 0.2 | 3.8 ± 0.2 | – | –
C=CC=C [1,3-butadiene] + CC(C)O | 3.9 ± 0.2 | 3.8 ± 0.2 | 3.7 ± 0.2 | 3.5 ± 0.2 | 3.3 ± 0.2 | – | –
C/C=C/C [(E)-2-butene] + CC(C)O | – | – | 4.2 ± 0.2 | 4.1 ± 0.2 | 3.9 ± 0.2 | 4.3 ± 0.2 | 4.3 ± 0.2
CC(C)C [2-methylpropane] + CC(C)O | – | – | 5.2 ± 0.2 | 5 ± 0.2 | 4.7 ± 0.2 | 5.4 ± 0.3 | 5.3 ± 0.2
CCC [propane] + CC(C)O | – | – | 4.4 ± 0.2 | 4.3 ± 0.2 | 4.2 ± 0.2 | 4.5 ± 0.2 | 4.5 ± 0.2
C=CCC [1-butene] + CC(C)O | 4.4 ± 0.2 | 4.4 ± 0.2 | 4.3 ± 0.2 | 4.1 ± 0.2 | 3.9 ± 0.2 | – | –
CCCC [butane] + CC(C)O | 5.2 ± 0.2 | 5.1 ± 0.2 | 5.1 ± 0.2 | 4.9 ± 0.2 | 4.6 ± 0.2 | – | –
C=CC [propene] + CC(C)O | – | – | 3.7 ± 0.2 | 3.6 ± 0.2 | 3.4 ± 0.2 | 3.8 ± 0.2 | 3.7 ± 0.2
